Measurements taken from article PMC6371959 (Antiviral Research, 2018).
Like-named read-outs stand apart in the source and are kept apart here.

Tests used:
[1] = system: T7FFLuc control (T7 RNA polymerase driven firefly luciferase); experiment: cells; format: cell-based; conditions: BSR-T7, read-out: EC50 (T7FFLuc control)
EBOV minigenome (WT NP) [2] = experiment: microbe, parasite or virus in culture; conditions: Zaire ebolavirus; for EC50: BSR-T7, read-out: EC50 (reduction in luciferase, EBOV minigenome)
EBOV minigenome (WT NP) [3] = experiment: in vitro; conditions: hamster
in vitro [4] = conditions: hamster, CC50 (reduction in cell viability, MTT)
[5] = system: T7FFLuc control (T7 RNA polymerase driven firefly luciferase); experiment: cells; format: cell-based; conditions: read-out: EC50 (T7FFLuc control)
[6] = system: Bunyamwera virus (BUNV) minigenome; experiment: microbe, parasite or virus in culture; format: cell-based; conditions: BSR-T7, read-out: EC50 (BUNV minigenome control)
Huh7-Lunet-T7 cells = conditions: human
EBOV minigenome (WT NP) [7] = experiment: microbe, parasite or virus in culture; format: cell-based, Ebola virus (EBOV), Makona strain; conditions: Zaire ebolavirus, read-out: EC50 (reduction in luciferase, EBOV minigenome)
in vitro [8] = conditions: human, CC50 (reduction in cell viability, MTT)
influenza NP = conditions: cited from earlier work

Row | Structure (SMILES) | EC50 [1] | EC50 (EBOV minigenome (WT NP) [2]) | selectivity ratio (EBOV minigenome (WT NP) [3]) | CC50 (in vitro [4]) | EC50 [5] | EC50 [6] | EC90 (EBOV minigenome (WT NP) [2]; BSR-T7, read-out: EC90 (EBOV minigenome)) | inhibition at 4.8 µM (EBOV minigenome (WT NP) [2]; BSR-T7, read-out: inhibition of luciferase (time course)) | CC50 (Huh7-Lunet-T7 cells) | EC50 (EBOV minigenome (WT NP) [7]) | CC50 (in vitro [8]) | EC50 (influenza, NP aggregation) (influenza NP)
1 | O=C(c1cccc(/C=C2\SC(=O)N(Cc3cccc(F)c3)C2=O)c1)N1CCN(c2ccccn2)CC1 [MCCB4-8] | > 100 µM | 11.2 µM | 4 | 46.5 µM |  |  |  |  |  |  |  | 
2 | O=C(c1cccc(/C=C2\SC(=O)N(Cc3ccc(F)cc3)C2=O)c1)N1CCN(c2ccccn2)CC1 [MCCB4-12] | 49.5 µM | 8.8 µM | 6.5 | 64.8 µM |  |  |  |  |  |  |  | 
3 | O=C(c1cccc(/C=C2\SC(=O)N(Cc3ccccc3)C2=O)c1)N1CCN(c2ccccn2)CC1 [MCCB4] | > 100 µM | 4.8 µM |  | > 100 µM | 30.8 µM | > 100 µM | 49 µM | 50% | 43.2 µM | 1.5 µM | 48.8 µM | 
4 | Cc1onc(-c2ccccc2)c1C(=O)N1CCN(c2ccc([N+](=O)[O-])cc2Cl)CC1 [Nucleozin] |  |  |  |  |  |  |  |  |  |  |  | nM range
